{"source": "patent US20180024136A1", "about": "“Development of ABCG2-Sensitive Fluorescent Probe For Isolation of ABCG2low Neural Stem/Progenitor Cells” (National University of Singapore, priority 2015, published 2018)", "key": {"NS-5 cells [1]": {"test_system": "NS-5 cells", "assay": "DOFLA screening: live cell staining of MEF, mESC, NS5 and differentiated NS5", "format": "cell-based, mouse", "settings": "1 μM, 1 hour, NS5, D-NS5", "procedure": "The screening platform was composed of mouse embryonic fibroblast (MEF), mouse embryonic stem cells (mESC), NS5 and differentiated NS5 (D-NS5) (FIG. 4). A derivate from the CF library was selected having eleven saturated carbon chain (CF-C11), named as compound of designation green 13 (CDg13, λabs/λem=520/553 nm; quantum yield=0.82) (FIG. 4A, Table 3). […] To characterize the subcellular target of the CDg13 probe, the image of CDg13 using confocal microscopy was analyzed. The CDg13 stained organelle was clearly merged with the staining of a molecular probe that targeted endoplasmic reticulum (ER), but not with Golgi, lysosome, and mitochondria targeted probes (FIG. 4C). The value of co-localization with ER was appeared as 0.97 on both of Pearson's Collection and Mander's overlap, whereas other organelle markers were below 0.83.\nScreening of fluorescent probes of DOFL was conducted using high-throughput imaging analysis as previously described^7.\nHoechst 33342 (2 μM) and CDg13 (1 μM) were added to the cell culture medium. After incubation for 1 hour, culture media were changed with BSA-free medium to maintain CDg13 staining. […] The subcellular staining was observed under confocal microscope and their co-localizations were analyzed by Pearson's Collection and Mander's overlap using NIS-Elements software of Eclipse Ti microscope (Nikon)."}, "NS-5 cells [2]": {"test_system": "NS-5 cells", "assay": "Subcellular co-localization with organelle trackers by confocal microscopy", "format": "cell-based, mouse", "procedure": "Hoechst 33342 (2 μM) and CDg13 (1 μM) were added to the cell culture medium. After incubation for 1 hour, culture media were changed with BSA-free medium to maintain CDg13 staining. The organelle specific chemical probes, ER-Tracker™ Red, BODIPY® TR Ceramide, LysoTracker® Red DND-99 and MitoTracker® Deep Red FM, were used to stain endoplasmic reticulum, Golgi apparatus, lysosome and mitochondria, respectively according to manufacturer's instructions (Molecular Probe). The subcellular staining was observed under confocal microscope and their co-localizations were analyzed by Pearson's Collection and Mander's overlap using NIS-Elements software of Eclipse Ti microscope (Nikon).\nNS-5 cells stained with CDg13, Hoechst33342 and/or organelle markers were observed using A1R+si confocal microscope (Nikon) within 1 hour after staining. The live NS-5 cells were loaded into a pre-heated plate with supplemented 5% CO2. Fast scanning less than 250 ms with 4 times scan were used to prevent phototoxicity onto the cells."}, "[3]": {"test_system": "E14.5 mouse embryonic brain cells", "assay": "Neurosphere formation of FACS-sorted E14.5 embryonic brain cells", "format": "cell-based", "settings": "6 days culture, >50 μm diameter, 10,000 cells/well", "text": "For the counting of the number of neurosphere, we selected 6 days-cultured neurospheres having larger than 50 μm of diameter. The whole neurospheres in a well were counted to reduce random counting error using EVOS microscope (Advanced Microscopy Group).\nE14.5 embryos were obtained from C57BL/6 pregnant mice. Cerebral cortices were removed and triturated into single-cell suspension by digestion of dissected tissues with StemPro® Accutase® (Invitrogen) and filtered through 40 μm nylon mesh. The brain cells were collected by centrifugation with 400×g for 3 min and resuspended in neurosphere growth medium [DMEM/F12 supplemented with 2% B27 (without vitamin A), bFGF (10 ng/ml), EGF (20 ng/ml), 1× anti-anti]. The cells were stained for 1 hour with 1 μM of CDg13 in neurosphere growth medium. After collecting cells by centrifuge as described above, the cells were resuspended to BSA-free DMEM (phenol red free) and added propidium iodide (PI) at a concentration of 1 μg/ml to distinguish dead cells. FACS sorting was performed using the MoFlo XDP cell sorter (Beckman Coulter). Cells were sorted by pre-gating with FSC/SSC properties to exclude small debris having FSC^low/SSC^low. To isolate CDg13 stained cell population, we used a 488 nm laser excitation and a 529/28 BP filter to collect emitted light. Dead cells stained by PI were detected with a 488 nm excitation and a 620/29 BP emission. […]"}, "ABCB1": {"target": "ABCB1 (Homo sapiens, UniProt P08183)", "sequence (P08183 whole entry)": "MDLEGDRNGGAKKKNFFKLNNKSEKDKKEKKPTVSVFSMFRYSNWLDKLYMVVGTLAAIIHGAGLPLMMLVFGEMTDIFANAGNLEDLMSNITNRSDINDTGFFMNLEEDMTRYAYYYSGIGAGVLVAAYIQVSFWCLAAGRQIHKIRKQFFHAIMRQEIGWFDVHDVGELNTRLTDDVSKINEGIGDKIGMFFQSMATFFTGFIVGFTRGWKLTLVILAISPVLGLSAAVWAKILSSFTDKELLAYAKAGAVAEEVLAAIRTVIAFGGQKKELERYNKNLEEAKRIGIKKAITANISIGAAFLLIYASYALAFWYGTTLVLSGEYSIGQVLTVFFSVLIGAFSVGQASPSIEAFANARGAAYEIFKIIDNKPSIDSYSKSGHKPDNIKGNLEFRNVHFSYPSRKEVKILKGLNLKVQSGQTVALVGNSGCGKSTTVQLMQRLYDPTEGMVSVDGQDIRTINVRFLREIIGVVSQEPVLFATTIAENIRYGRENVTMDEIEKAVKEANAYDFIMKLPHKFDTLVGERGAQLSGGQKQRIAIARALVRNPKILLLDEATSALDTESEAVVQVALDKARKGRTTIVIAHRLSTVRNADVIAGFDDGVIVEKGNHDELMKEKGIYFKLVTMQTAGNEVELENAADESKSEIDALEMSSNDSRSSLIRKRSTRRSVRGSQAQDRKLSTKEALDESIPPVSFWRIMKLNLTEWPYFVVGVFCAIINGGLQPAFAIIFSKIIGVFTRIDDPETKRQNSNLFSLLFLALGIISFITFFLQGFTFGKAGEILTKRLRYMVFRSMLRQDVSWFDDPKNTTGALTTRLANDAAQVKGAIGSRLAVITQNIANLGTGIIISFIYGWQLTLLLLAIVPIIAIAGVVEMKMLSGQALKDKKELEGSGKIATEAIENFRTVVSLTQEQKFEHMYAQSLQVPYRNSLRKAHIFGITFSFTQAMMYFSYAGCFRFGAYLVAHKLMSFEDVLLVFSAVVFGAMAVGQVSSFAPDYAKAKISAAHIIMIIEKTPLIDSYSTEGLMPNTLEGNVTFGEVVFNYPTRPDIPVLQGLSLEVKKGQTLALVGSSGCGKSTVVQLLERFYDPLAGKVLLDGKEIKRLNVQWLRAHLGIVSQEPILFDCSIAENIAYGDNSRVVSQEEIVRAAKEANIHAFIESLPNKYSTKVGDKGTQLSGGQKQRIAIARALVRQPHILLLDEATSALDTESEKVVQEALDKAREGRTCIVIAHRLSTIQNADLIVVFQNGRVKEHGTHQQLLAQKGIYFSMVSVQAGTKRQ", "assay": "in vitro"}, "ABCG2": {"target": "T1, ABCG2 (Homo sapiens, UniProt Q9UNQ0)", "T1 sequence (Q9UNQ0 1-655)": "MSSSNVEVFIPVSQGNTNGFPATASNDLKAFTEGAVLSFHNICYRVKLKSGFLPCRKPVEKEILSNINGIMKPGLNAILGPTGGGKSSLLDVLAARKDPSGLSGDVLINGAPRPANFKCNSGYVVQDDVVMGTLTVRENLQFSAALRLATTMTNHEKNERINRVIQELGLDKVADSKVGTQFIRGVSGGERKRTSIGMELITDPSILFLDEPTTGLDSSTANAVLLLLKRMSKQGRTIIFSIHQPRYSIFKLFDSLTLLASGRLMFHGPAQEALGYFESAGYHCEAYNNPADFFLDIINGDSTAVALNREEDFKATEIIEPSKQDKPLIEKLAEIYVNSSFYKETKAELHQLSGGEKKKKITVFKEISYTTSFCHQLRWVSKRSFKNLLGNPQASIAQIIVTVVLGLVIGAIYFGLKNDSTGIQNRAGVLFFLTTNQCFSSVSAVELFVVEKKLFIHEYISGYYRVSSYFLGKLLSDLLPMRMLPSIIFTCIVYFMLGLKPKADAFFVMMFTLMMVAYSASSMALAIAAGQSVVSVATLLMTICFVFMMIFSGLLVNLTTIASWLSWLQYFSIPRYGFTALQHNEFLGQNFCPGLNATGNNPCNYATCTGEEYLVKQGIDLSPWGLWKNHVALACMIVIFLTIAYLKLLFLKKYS", "assay": "Probe response to Ko143 in RPMI-8226 cells", "format": "cell-based", "design": "pre-treatment of RPMI-8226 cells with or without Ko143; endogenous in cells; host or cells: RPMI-8226", "settings": "RPMI-8226, Ko143 pre-treatment, 1 μM probe", "procedure": "FIGS. 11A-11B show CDg13 has high sensitivity to ABCG2: (A) and (B) pre-treatment of RPMI-8226 cells with or without Ko143 were conducted for 30 minutes prior to staining with 1 μM of CDg13, pheophorbide A (PhA) or CDr3, fold change of fluorescence intensity from 3-6 independent experiments (A) (values are means±SEM, *, p<0.05; **, p<0.01), and representative fluorescence histogram of CDg13 and PhA (B) (unstained, 0, 100, 1,000 and 5,000 nM of Ko143 treated group is presented)."}}}
{"molecule": "CCCCCCCCCN(CCCCCCCCC)C(=O)c1ccc(-c2c3cc(Cl)c(=O)cc-3oc3cc(O)c(Cl)cc23)cc1", "note": "[CDg13]", "values": [{"measurement": "cell type staining selectivity", "setting": "NS-5 cells [1]", "result": "preferentially stains undifferentiated NS-5 cells, a NSPC line, but not other cell types"}, {"measurement": "co-localization with other organelle markers", "setting": "NS-5 cells [2]; Golgi, lysosome, mitochondria trackers", "result": "below 0.83"}, {"measurement": "co-localization with ER (Pearson's Collection and Mander's overlap)", "setting": "NS-5 cells [2]; live NS-5 cells, ER tracker", "result": 0.97}, {"measurement": "number of neurospheres of CDg13^bright cells compared to CD133^high cells", "setting": "[3]", "result": 1.5, "unit": "fold"}, {"measurement": "number of neurospheres of CDg13^bright cells compared to unsorted brain cells", "setting": "[3]", "result": 5.9, "unit": "fold"}, {"measurement": "fold induction at 1 h, 10 µM", "setting": "ABCB1", "result": 1.5}, {"measurement": "sensitivity of response to ABCG2", "setting": "ABCG2", "result": "higher sensitivity and produced more consistent data than PhA"}]}
